One assay has as its system human cancer cell lines. The conditions noted are these: cited from earlier work.
The test system of assay [1] is NCI-H460 cells. Put plainly: NCI-H460 cell viability, alamarBlue (resazurin), 96 hours. Type of assay: cell-based, human. The conditions noted are these: FIG. 13. On the procedure: 1) NCI-H460 cells were grown in Ham's F12 media supplemented with 10% FBS. 2) Cells were harvested and seeded into 96-well plates at 500 cells/well. 3) Compounds were made up from stock solutions and added directly to cells in doubling dilutions starting at 200 μM. Final DMSO concentration was 0.2%. 4) Cells were grown with compound for 96 hours at 37° C. 5% CO2 in a humidified atmosphere. 5) A resazurin dye composition (AlamarBlue® cell viability reagent (Life Technologies, Inc.)) 10% (v/v) was then added and incubated for a further 4 hours, and fluorescent product detected using the BMG FLUOstar plate reader. 6) Media only background readings were subtracted before data were analysed using a 4-parameter logistic equation in GraphPad Prism. The IC50 of HILR-30 was determined as 6 μM.
1) NCI-H460 cells were grown in Ham's F12 media supplemented with 10% FBS. 2) Cells were harvested and seeded into 96-well plates at 500 cells/well. 3) Olaparib was made up from stock solutions and added directly to cells in semi-log dilutions starting at 30 μM. Final DMSO concentration was 0.3%. […] 5) AlamarBlue® cell viability reagent (Life Technologies, Inc.) 10% (v/v) was then added and incubated for a further 4 hours, and fluorescent product detected using the BMG FLUOstar plate reader. 6) Data were analysed using a 4-parameter logistic equation in GraphPad Prism.

Assay [2] has as its system NCI-H460 human non-small-cell lung cancer cells. Put plainly: Cell killing alone or in combination with 2-deoxyglucose, alamarBlue. The conditions noted are these: 3.125 mmol 2-DOG. Type of assay: cell-based. The protocol: NCI-H460 human non-small-cell lung cancer cells were contacted with HILR-025 or HILR-D-07 alone or in combination with 3.125 mmol 2-DOG and cell survival was determined using AlamaBlue® cell viability reagent (Life Technologies, Inc.) in accordance with the manufacturer's instructions.
A general note: The colour change of resazurin is a common sign of viable cells or microbes.

Assay [3] has as its system Lactate Dehydrogenase A [LDHA]. The experiment in a line: LDH activity assay on lysates of treated NCI-H460 cells. The note with it: higher concentrations, particularly later time point.
Procedure: Therefore a BCA assay was conducted to estimate the total amount of protein present in each LDH assay lysate and this was used to normalise the enzyme activity data. As an indication of cell viability, an Alamar blue assay was also carried out at both timepoints, to serve as an additional point of reference.
1) NCI-H460 cells were grown in Ham's F12 media supplemented with 10% FBS. 2) Cells were harvested and seeded into 96-well plates at either 500 cells/well (for the 96 h timepoint) or 5000 cells/well for the 24 h timepoint. […] 6) At the end of the assay (24 or 96 h), Alamar blue 10% (v/v) was added to one set of plates, incubated for a further 4 hours, and fluorescent product detected using the BMG FLUOstar plate reader. […] 10) LDH activity was measured in the cleared lysates using an LDH activity kit (Abeam, ab102526). 11) After preparation of the LDH activity assay reactions, according to the manufacturer's instructions, absorbance at 450 nm was measured at the initial time to determine (A450)initial 12) Further absorbance readings were taken at 3 minute intervals for up to 15 minutes.
14) The change in measurement from Tinitial to Tfinal for each sample was calculated: 11A450=(A450)final−(A450)initial 15) The NADH standard curve was used to interpolate the 11A450 for each sample to determine the amount of NADH generated by the kinase assay between Tinitial and Tfinal (B). […]
For assay [4], the system named is NCI-H460 cells. Put plainly: HILR-001 with or without 30 nM Olaparib, alamarBlue and CellTiter-Glo time course. Type of assay: cell-based, human. On the procedure:
Four concentrations of HILR-001 were tested in the presence or absence of 30 nM Olaparib; At each time point cell viability was measured by two assay readouts, alamarBlue® and CellTiter-Glo. Conversion of alamarBlue® to a fluorescent product serves as a readout of the metabolic activity of cells, whereas CellTiter-Glo is based on quantification of the ATP present.
1) NCI-H460 cells were grown in Ham's F12 media supplemented with 10% FBS. 2) Cells were harvested and seeded into 96-well plates at 500 cells/well. 3) HILR-001 was made up from a 10 mM stock solution and added directly to cells in doubling dilutions starting at 200 μM. Olaparib was made up from a 10 mM stock solution and added directly to cells at 30 nM. The total final DMSO concentration was 0.25%. 4) Cells were grown with compound for 24, 48, 72 or 96 hours at 37° C. 5% CO2 in a humidified atmosphere. 5) AlamarBlue® 10% (v/v) was then added and incubated for a further 4 hours, and fluorescent product detected using the BMG FLUOstar plate reader. 6) On duplicate plates the media was removed from the cells, CellTiter-Glo was diluted in PBS (1:10) and 100 μl added to the cells. 7) Plates were mixed on an orbital shaker for 2 minutes and incubated for a further 10 minutes at room temperature. Luminescent signal was then measured using the BMG FLUOstar plate reader.

Assay [5] has as its system NCI-H460 human non-small cell lung cancer cells. The note with it: cited from earlier work.
The mark [6] stands for this setting: 30 nM Olaparib with 50 μM HILR-001.

“Also recorded” adds a separate entry of the source. Non-standard residues stand in square brackets, D forms with d. Residues, ends and D or L forms follow the SMILES beside them. Phe(4-guanidino) = N=C(N)Nc1ccc(C[C@H](N)C(=O)O)cc1; Abu(4-SO3H) = N[C@@H](CCS(=O)(=O)O)C(=O)O

“Cyc-[AAGPGGPRGPRPGGPGAA] (cyclic; cyclic peptide; (1)..(18) cyclic peptide) [SEQ ID NO: 9]”: the “activity of PRGPRP cyclic peptides with non-amphiphilic backbone” value (from here on “activity … with non-amphiphilic backbone”) with human cancer cell lines is “INACTIVE”.
For the compound “Cyc-[Gly-Asp-Glu-Val-NMeAsp-Sarc-Val-Trp-Trp-Arg-Arg-Trp-Trp-Arg-Arg-Trp-Trp] [HILR-D-01]”, the “cell-killing of NCI-H460 cells” value in the assay on NCI-H460 cells [1] is listed as “weak but significant dose-related cell-killing; also recorded: mild but significant killing”.
For the compound “cyclo-[Pro-Hca-Gly-Pro-Hca-Pro-Val-Trp-Trp-Gpa-Gpa-Trp-Trp-Gpa-Gpa-Trp-Trp] (cyclo(P[Abu(4-SO3H)]GP[Abu(4-SO3H)]PVWW[Phe(4-guanidino)][Phe(4-guanidino)]WW[Phe(4-guanidino)][Phe(4-guanidino)]WW)) [HILR-D-07]”, in assay [2], the “cell killing ability with co-administration of 2-DOG” value is given as “enhanced”.
Regarding `CC(C)[C@@H]1NC(=O)[C@@H]2CCCN2C(=O)[C@H](CCCNC(=N)N)NC(=O)[C@@H]2CCCN2C(=O)CNC(=O)[C@H](CCCNC(=N)N)NC(=O)[C@@H]2CCCN2C(=O)[C@H](Cc2c[nH]c3ccccc23)NC(=O)[C@H](Cc2c[nH]c3ccccc23)NC(=O)[C@H](Cc2ccc(NC(=N)N)cc2)NC(=O)[C@H](Cc2ccc(NC(=N)N)cc2)NC(=O)[C@H](Cc2c[nH]c3ccccc23)NC(=O)[C@H](Cc2c[nH]c3ccccc23)NC(=O)[C@H](Cc2ccc(NC(=N)N)cc2)NC(=O)[C@H](Cc2ccc(NC(=N)N)cc2)NC(=O)[C@H](Cc2c[nH]c3ccccc23)NC(=O)[C@H](Cc2c[nH]c3ccccc23)NC1=O` [HILR-030] (cyclo(PRGPRPVWW[Phe(4-guanidino)][Phe(4-guanidino)]WW[Phe(4-guanidino)][Phe(4-guanidino)]WW)), the “cell death during LDH study” value in assay [3] is “Significant cell death”.
Regarding `O=C(c1cc(Cc2n[nH]c(=O)c3ccccc23)ccc1F)N1CCN(C(=O)C2CC2)CC1` [Olaparib, 4-[3-(4-cyclopropanecarbonylpiperazine-1-carbonyl)-4-fluorobenzyl]-2H-phthalazin-1-one], in the assay on NCI-H460 cells [4] (setting [6]), the “ATP levels (CellTiter-Glo)” value is listed as “partially restored; also recorded: partially reverses” and the “HILR-001-mediated cell death (alamarBlue)” value was “reversed”. The “ATP levels or cancer cell death” value with NCI-H460 cells [4] (30 nM Olaparib with 100 μM and 200 μM HILR-001) is on record as “did not affect”.
Consider `CC(C)[C@@H]1NC(=O)[C@@H]2CCCN2C(=O)[C@H](CCCNC(=N)N)NC(=O)[C@@H]2CCCN2C(=O)CNC(=O)[C@H](CCCNC(=N)N)NC(=O)[C@@H]2CCCN2C(=O)[C@H](Cc2c[nH]c3ccccc23)NC(=O)[C@H](Cc2c[nH]c3ccccc23)NC(=O)[C@H](CCCNC(=N)N)NC(=O)[C@H](CCCNC(=N)N)NC(=O)[C@H](Cc2c[nH]c3ccccc23)NC(=O)[C@H](Cc2c[nH]c3ccccc23)NC(=O)[C@H](CCCNC(=N)N)NC(=O)[C@H](CCCNC(=N)N)NC(=O)[C@H](Cc2c[nH]c3ccccc23)NC(=O)[C@H](Cc2c[nH]c3ccccc23)NC1=O` [HILR-025] (HELM PEPTIDE1{P.R.G.P.R.P.V.W.W.R.R.W.W.R.R.W.W}$PEPTIDE1,PEPTIDE1,1:R1-17:R2$$$V2.0), for which the “cell killing ability with co-administration of 2-DOG” value in assay [2] is on record as “enhanced”. Also, in assay [3], the “cell death during LDH study” value is “Significant cell death”.
Regarding `CC(C)C[C@@H]1NC(=O)[C@H](C)NC(=O)[C@H](C(C)C)NC(=O)[C@@H]2CCCN2C(=O)[C@H](CCCNC(=N)N)NC(=O)[C@@H]2CCCN2C(=O)CNC(=O)[C@H](CCCNC(=N)N)NC(=O)[C@@H]2CCCN2C(=O)[C@H](CC(C)C)NC(=O)[C@H](C)NC(=O)[C@H](CC(C)C)NC(=O)[C@H](CCCCN)NC(=O)[C@H](CC(C)C)NC(=O)[C@H](C)NC(=O)[C@H](CC(C)C)NC(=O)[C@H](CCCCN)NC1=O` [HILR-001] (HELM PEPTIDE1{P.R.G.P.R.P.V.A.L.K.L.A.L.K.L.A.L}$PEPTIDE1,PEPTIDE1,1:R1-17:R2$$$V2.0), the “killing NCI-H460 human non-small cell lung cancer cells” value in assay [5] is recorded as “(“THR54”) ACTIVE”.
In the case of “Cyc-[GGGGGGPRGPRPGGGGGG] (cyclic; cyclic peptide; (1)..(18) cyclic peptide) [SEQ ID NO: 7]”, the “activity … with non-amphiphilic backbone” value in the assay on human cancer cell lines is “INACTIVE”.
As to “Cyc-[AAAGGGPRGPRPGGGAAA] (cyclic; Cyclic peptide; (1)..(18) cyclic peptide) [SEQ ID NO: 6]”, in the assay on human cancer cell lines, the “activity … with non-amphiphilic backbone” value is listed as “INACTIVE”.
Regarding “Cyc-[PRGPRPVKLALKLALKFP] (cyclic; cyclic peptide; (1)..(18) cyclic peptide) [THR53]”, the “killing NCI-H460 human non-small cell lung cancer cells” value in assay [5] is “(“THR5”) ACTIVE”.
For “Cyc-[PRGPRPVKLALKLALKLAL] (cyclic; cyclic peptide; (1)..(19) cyclic peptide) [THR52]”, the “killing NCI-H460 human non-small cell lung cancer cells” value in assay [5] is “(“THR52”) INACTIVE”.
